Results: the Deep4Chem optical property database
Values belong to the molecule of their own block, whether it stands above or below them.

Experiment: solvent given as SMILES

Structure (SMILES): N#CC(C#N)=C(c1ccc(N(c2ccccc2)c2ccccc2)cc1)c1ccc(N(c2ccccc2)c2ccccc2)cc1
absorption maximum (in C1CCCCC1): 367.21 nm
absorption maximum (in CC(C)=O): 370.45 nm
absorption maximum (in CN(C)C=O): 374.03 nm
absorption maximum (in Cc1ccccc1): 374.03 nm
absorption maximum (in ClC(Cl)Cl): 381.49 nm

absorption maximum (in C1CCCCC1): 421 nm
absorption maximum (in CC#N): 422 nm
absorption maximum (in CO): 421 nm
absorption maximum (in ClCCl): 425 nm
Structure (SMILES): COc1ccc2c(c1)c1c(OC)c3ccccc3c(OC)c1n2C

Structure (SMILES): CCOC(=O)/C(C#N)=C\c1cn(-c2ccccc2)nc1-c1ccccc1
absorption maximum (in C1CCOC1): 347 nm
absorption maximum (in C1COCCO1): 348 nm
absorption maximum (in CCO): 347 nm
absorption maximum (in CCOC(C)=O): 346 nm
absorption maximum (in CN(C)C=O): 347 nm
absorption maximum (in CO): 344 nm
absorption maximum (in CS(C)=O): 349 nm
absorption maximum (in Cc1ccccc1): 353 nm
absorption maximum (in ClC(Cl)Cl): 351 nm
absorption maximum (in ClCCl): 348 nm

absorption maximum (in ClCCl): 447 nm
Structure (SMILES): N#Cc1cc(/C=C/c2ccc(N(c3ccccc3)c3ccccc3)cc2)ccc1/C=C/c1ccc(/C=C/c2ccc(N(c3ccccc3)c3ccccc3)cc2)cc1C#N

absorption maximum (in ClCCl): 411 nm
Structure (SMILES): C(#Cc1ncnc2ccccc12)c1ccc(N(c2ccccc2)c2ccccc2)cc1

absorption maximum (in CC#N): 406 nm
Structure (SMILES): Cc1cc2c(ccc3c(C)[n+](C)c(C)cc32)c(C)[n+]1C

absorption maximum (in ClCCl): 556 nm
Structure (SMILES): COc1ccccc1C1=[N+]2C(=C(c3ccccc3)c3c4c(c(-c5ccccc5OC)n3[B-]2(F)F)C2C=CC4CC2)C2=C1C1C=CC2CC1 (stereo not given)

Structure (SMILES): c1ccc(C[n+]2ccc(-c3cc[n+](Cc4ccccc4)cc3)cc2)cc1
absorption maximum (in CC#N): 260 nm

absorption maximum (in ClCCl): 358 nm
Structure (SMILES): COc1ccc2cc(C#N)c(=N)oc2c1

absorption maximum (in C1CCOC1): 365 nm
Structure (SMILES): c1cc2ccc1-c1ccc(cc1)-c1ccc([se]1)-c1ccc(cc1)-c1ccc(cc1)-c1ccc([se]1)-c1ccc(cc1)-c1ccc(cc1)-c1ccc-2[se]1

Structure (SMILES): COc1ccc(N(c2ccc(OC)cc2)c2ccc3ccc4c(B(c5c(C)cc(C)cc5C)c5c(C)cc(C)cc5C)ccc5ccc2c3c54)cc1
absorption maximum (in C1CCOC1): 465 nm
absorption maximum (in CC(C)=O): 459 nm
absorption maximum (in CCCCCC): 463 nm
absorption maximum (in Cc1ccccc1): 469 nm
absorption maximum (in ClC(Cl)Cl): 461 nm
absorption maximum (in ClCCl): 461 nm

Structure (SMILES): O=c1oc2ccc(Cl)cc2cc1-c1cc2cc(Cl)ccc2o1
absorption maximum (in CC#N): 369 nm
absorption maximum (in CCOC(C)=O): 370 nm
absorption maximum (in CS(C)=O): 373 nm
absorption maximum (in Cc1ccccc1): 375 nm
absorption maximum (in O): 327 nm

absorption maximum (in C1COCCO1): 694 nm
absorption maximum (in CCO): 681 nm
absorption maximum (in CN(C)C=O): 681 nm
absorption maximum (in ClC(Cl)Cl): 690 nm
Structure (SMILES): CCCCCCCN1C(=CC2=C([O-])C(=CC3=[N+](CCCCCCC)c4ccccc4C3(C)C)C2=C(C#N)C#N)Sc2ccccc21

absorption maximum (in CCCCCC): 560 nm
absorption maximum (in CCOC(C)=O): 554 nm
absorption maximum (in ClCCl): 558 nm
Structure (SMILES): N#CSC1=CC2=C(c3ccccc3)c3ccc(SC#N)n3[B-](F)(F)[N+]2=C1N1CCOCC1

Structure (SMILES): O=[N+]([O-])c1ccc(/C2=C3N=C(C(c4ccccc4)=C/3c3ccccc3)/C(c3ccc([N+](=O)[O-])cc3)=c3\[nH]/c(c(-c4ccccc4)c3-c3ccccc3)=C(/c3ccc([N+](=O)[O-])cc3)C3=N/C(=C(/c4ccc([N+](=O)[O-])cc4)c4[nH]c2c(-c2ccccc2)c4-c2ccccc2)C(c2ccccc2)=C3c2ccccc2)cc1
absorption maximum (in ClCCl): 711 nm

absorption maximum (in CC#N): 401 nm
absorption maximum (in CO): 401 nm
absorption maximum (in ClCCl): 406 nm
Structure (SMILES): COc1ccc(-c2[nH]c(=O)n3c2-c2ccccc2C3=O)c(OC)c1

absorption maximum (in ClC(Cl)Cl): 410 nm
Structure (SMILES): CCc1cc(CC)cc(-n2c3ccccc3c3cc4c(cc32)c2ccccc2n4-c2cc(CC)cc(CC)c2)c1

absorption maximum (in C1CCOC1): 340 nm
Structure (SMILES): O=P(c1ccccc1)(c1ccccc1)n1c2ccccc2c2cc(-n3c4ccccc4c4ccccc43)ccc21

absorption maximum (in ClC(Cl)Cl): 329 nm
Structure (SMILES): COc1cc(-c2cc(-c3ccccc3)c(-c3ccccc3)c(-c3ccccc3)c2-c2ccccc2)c(OC)cc1-c1ccc(N(C)C)cc1

absorption maximum (in CCCCCC): 369 nm
Structure (SMILES): CC(C)[Si](C#Cc1ccc(C#C[Si](C(C)C)(C(C)C)C(C)C)c2nc3c(nc12)Cc1ccccc1-3)(C(C)C)C(C)C

absorption maximum (in ClCCl): 539 nm
Structure (SMILES): COc1cccc(C2=C3C=C(/C=C/C(=O)OC(C)(C)C)C=[N+]3[B-](F)(F)n3cccc32)c1

absorption maximum (in CC#N): 445 nm
Structure (SMILES): Cn1ccc(-c2nc3ccccc3nc2/C=C/N2CCCC2)c1

absorption maximum (in ClCCl): 376 nm
Structure (SMILES): c1ccc(-n2c(-c3ccc(N(c4ccc(-c5ccc(N(c6ccc(-c7nc8c9ccccc9c9ccccc9c8n7-c7ccccc7)cc6)c6ccc(-c7nc8c9ccccc9c9ccccc9c8n7-c7ccccc7)cc6)cc5)cc4)c4ccc(-c5nc6c7ccccc7c7ccccc7c6n5-c5ccccc5)cc4)cc3)nc3c4ccccc4c4ccccc4c32)cc1

absorption maximum (in CS(C)=O): 454 nm
absorption maximum (in ClCCl): 441 nm
Structure (SMILES): CCNc1cc2oc(=O)c3c(=O)oc4ccccc4c3c2cc1C

absorption maximum (in ClCCl): 440 nm
Structure (SMILES): O=[N+]([O-])c1ccc([N+]2=CC3=C(O[B-]2(F)F)c2ccccc2SC3)cc1

absorption maximum (in ClCCl): 410 nm
Structure (SMILES): CCCCC(CC)Cn1c2cc(C#N)ccc2c2ccc(C#Cc3ccc4ccc5cccc6ccc3c4c56)cc21 (stereo not given)

absorption maximum (in C1CCOC1): 365 nm
Structure (SMILES): C(=C1c2ccccc2-c2ccccc21)c1ccc(C=C2c3ccccc3-c3ccccc32)cc1

absorption maximum (in C1CCOC1): 346 nm
Structure (SMILES): N#Cc1c(N2CCCCC2)cc(-c2ccc3ccccc3c2)c2c1C(=O)c1ccccc1-2

absorption maximum (in ClCCl): 350 nm
Structure (SMILES): CCN(CC)c1ccc2c(c1)oc(=O)c1cc3c(-c4ccccc4)nn(C)c3nc12

Structure (SMILES): CN(C)c1ccc(-c2c(/C=C3/C=Cc4ccccc4N3Cc3ccccc3)c(=O)c2=O)cc1
absorption maximum (in C1CCCCC1): 358 nm
absorption maximum (in Cc1ccccc1): 364 nm
absorption maximum (in ClCCl): 511 nm

Structure (SMILES): CCCCN1C(=O)c2cccc3c([O-])c(/C=C/c4sc5ccccc5[n+]4CC)cc(c23)C1=O
absorption maximum (in C1CCOC1): 586.75 nm
absorption maximum (in CC#N): 564.61 nm
absorption maximum (in CC(C)=O): 572.49 nm
absorption maximum (in CCO): 555.68 nm
absorption maximum (in CO): 545.83 nm
absorption maximum (in CS(C)=O): 566.81 nm
absorption maximum (in Cc1ccccc1): 607.26 nm
absorption maximum (in ClC(Cl)Cl): 589.53 nm
absorption maximum (in ClCCl): 584.78 nm
absorption maximum (in O): 489.49 nm

absorption maximum (in C1COCCO1): 370 nm
Structure (SMILES): COC(=O)c1ccc(/C=C2\N=C(c3ccccc3)OC2=O)cc1

absorption maximum (in CC#N): 597 nm
Structure (SMILES): CC1=[N+]2C(=C(c3ccccc3)c3c4ccccc4c(C)n3[B-]2(F)F)c2ccccc21

absorption maximum (in ClCCl): 626 nm
Structure (SMILES): CCCCN1C(=O)c2cc(Oc3ccc(C(C)(C)C)cc3)c3c4c(Oc5ccc(C(C)(C)C)cc5)cc5c(=O)[nH]/c(=C\c6ccc7ccccc7n6)c6cc(Oc7ccc(C(C)(C)C)cc7)c(c7c(Oc8ccc(C(C)(C)C)cc8)cc(c2c37)C1=O)c4c56

Structure (SMILES): CC(C)(C)c1ccc(C2=c3sc4ccccc4c3=[N+]3C2=Nc2c(-c4ccc(C(C)(C)C)cc4)c4sc5ccccc5c4n2[B-]3(F)F)cc1
absorption maximum (in C1CCOC1): 709 nm
absorption maximum (in Cc1ccccc1): 715 nm
absorption maximum (in ClC(Cl)Cl): 711 nm

absorption maximum (in ClCCl): 330 nm
Structure (SMILES): COc1ccc(-c2cnc(C#Cc3ccccc3)o2)cc1OC

absorption maximum (in ClC(Cl)Cl): 383 nm
Structure (SMILES): CCCCCCc1sc(CCCCCC)c2c3ccsc3c3sccc3c12

absorption maximum (in C1CCOC1): 573 nm
Structure (SMILES): F[B-]1(F)n2c(c(-c3ccccc3)c(-c3ccccc3)c2-c2ccccc2)C(c2ccccc2)=C2C(c3ccccc3)=C(c3ccccc3)C(c3ccccc3)=[N+]21

absorption maximum (in CC#N): 538 nm
Structure (SMILES): CC1=C(c2ccccc2)C2=Cc3c(-c4ccccc4)c(C)c(C)n3[B-](F)(F)[N+]2=C1C

absorption maximum (in ClCCl): 533 nm
Structure (SMILES): F[B-]1(F)n2c(Oc3ccccc3)c(Cl)c(Br)c2C(Oc2ccccc2)=C2C(Br)=C(Cl)C(Oc3ccccc3)=[N+]21

absorption maximum (in ClCCl): 369 nm
Structure (SMILES): COc1ccc(/C=C/c2cc(/C=C/c3ccc(OC)cc3)nc(/C=C/c3ccccc3)n2)cc1

absorption maximum (in CC#N): 382 nm
Structure (SMILES): N#C/C(=C\c1ccc([N+](=O)[O-])cc1)c1nc(-c2ccccc2)cs1

absorption maximum (in CC#N): 593 nm
absorption maximum (in CO): 591 nm
absorption maximum (in ClCCl): 606 nm
absorption maximum (in O): 587 nm
Structure (SMILES): CCOC(=O)CC[N+]1=c2cc3c(cc2CCC1)=Cc1c(c2ccc(N(C)C)cc2oc1=O)O3

absorption maximum (in ClCCl): 350 nm
Structure (SMILES): CN1c2ccc3c(c2-c2ccccc2S1(=O)=O)-c1ccccc1S(=O)(=O)N3C

absorption maximum (in O): 432 nm
Structure (SMILES): N#Cc1c(N2CCCCC2)cc(-c2ccc(O)cc2)c2c1-c1cccc3cccc-2c13

absorption maximum (in ClCCl): 357 nm
Structure (SMILES): Brc1ccc(-c2nc(-c3ccc(C#Cc4ccc(-n5c6ccccc6c6ccccc65)cc4)cc3)nc(-c3ccc(C#Cc4ccc(-n5c6ccccc6c6ccccc65)cc4)cc3)n2)cc1

absorption maximum (in ClC(Cl)Cl): 495 nm
Structure (SMILES): c1ccc(N(c2ccccc2)c2ccc(-c3ccc(-c4ccc(-c5cccs5)c5nsnc45)s3)cc2)cc1

absorption maximum (in CC#N): 308 nm
Structure (SMILES): COc1ccc(C#Cc2ccc3ccc(=O)oc3c2)cc1

absorption maximum (in CC#N): 400 nm
absorption maximum (in ClCCl): 404 nm
Structure (SMILES): COC(=O)c1cc(=O)n(Cc2ccccc2)c2cc(-c3ccc(OC)cc3)sc12

absorption maximum (in CC#N): 388 nm
absorption maximum (in CO): 393 nm
absorption maximum (in ClCCl): 391 nm
Structure (SMILES): O=C1c2ccccc2-c2c(-c3cccc(Cl)c3O)[nH]c(=O)n21

Structure (SMILES): Cc1csc2[n+]1[B-](F)(F)OC(c1ccc(N(C)C)cc1)=N2
absorption maximum (in C1CCOC1): 405 nm
absorption maximum (in CC#N): 403 nm
absorption maximum (in Cc1ccccc1): 407 nm
absorption maximum (in ClCCl): 406 nm

absorption maximum (in ClCCl): 666 nm
Structure (SMILES): CCC1=C(C)C2=C(/C=C/c3ccc([N+](=O)[O-])cc3)c3c(C)c(CC)c(/C=C/c4ccc(OC)cc4)n3[B-](F)(F)[N+]2=C1/C=C/c1ccc(OC)cc1

Structure (SMILES): c1ccc(-c2cc(-c3ccc(-c4nc(-c5ccccn5)c(-c5ccccn5)[nH]4)cc3)cc(-c3ccccn3)n2)nc1
absorption maximum (in C1CCOC1): 371 nm
absorption maximum (in CC#N): 380 nm
absorption maximum (in CC(C)=O): 381 nm
absorption maximum (in CCO): 326 nm
absorption maximum (in CCOC(C)=O): 360 nm
absorption maximum (in CN(C)C=O): 337 nm
absorption maximum (in CO): 321 nm
absorption maximum (in CS(C)=O): 338 nm
absorption maximum (in ClC(Cl)Cl): 408 nm
absorption maximum (in ClCCl): 388 nm

absorption maximum (in c1ccccc1): 357 nm
Structure (SMILES): CCOC(=O)CSc1nc(C)c(CC)c(C#N)c1C#N

absorption maximum (in ClCCl): 414 nm
Structure (SMILES): COc1ccc2c(c1)c1cc(OC)ccc1c1c2c2c(C(=O)NC(C)(C)C)ccc(C(=O)NC(C)(C)C)c2c2c3ccc(OC)cc3c3cc(OC)ccc3c21

absorption maximum (in ClCCl): 486 nm
Structure (SMILES): c1ccc2c(C3=C(c4cccc5ccccc45)c4cccc5c4c(cc4nc6ccccc6nc45)O3)cccc2c1
